Measured values as given in EP4173633B1, “PRODUCTS COMPRISING ESSENTIAL OIL OR EXTRACT WITH PHENOLIC COMPOUNDS OBTAINED FROM THE RESIDUAL WATER OF THE HYDRODISTILLATION OF EUCALYPTUS GLOBULUS LEAVES AND THEIR USES” (RAIZ - Instituto De Investigação Da Floresta E Papel, priority 2021, dated 2023).

System: NIH/3T3 fibroblasts
Experiment: β-gal activity associated with senescence, etoposide-induced
Type: cell-based, mouse
Details: 12.5 µM etoposide 24 h alone; control 8.86%
Experimental: HaCaT and NIH/3T3 cells were seeded in 12-well plates at a density of 1.5 x 10^5 or 2.5 x 10^4 cells/well, respectively, and adhered for 24 h. Cell senescence was then induced in the HaCaT and NIH/3T3 lines by exposure to 100 µM etoposide (Sigma-Aldrich, St. Louis, MO, USA) for 72 h or 12.5 µM etoposide for 24 h, respectively. After the incubation period, senescent HaCaT and NIH/3T3 cells were treated in the absence or presence of EO (0.16 mg/mL) or HRW (0.8 µg/mL) for 24 h. In the case of NIH/3T3 cells, they were further treated for 24 h with bacterial cellulose membrane extract impregnated with glycerol and 2 µg/cm2 of extract with phenolic compounds obtained from wastewater from hydrodistillation (BC-G-HRW2), prepared from sterile samples (10 cm 2) incubated in 10 ml of DMEM exposure medium. As a control, cells not treated with etoposide were incubated with DMEM exposure medium or similarly prepared BC-G and BC-G-HRW2 membrane extracts. […] Finally, senescent cells were quantified using an inverted microscope (Carl Zeiss, Oberkochen, Germany) at 20x magnification, determining the % of β-gal-positive cells in randomly selected fields in four different images obtained in at least 3 independent experiments performed in duplicate.

For `COc1cc([C@@H]2c3cc4c(cc3[C@@H](O[C@@H]3O[C@@H]5CO[C@@H](C)O[C@H]5[C@H](O)[C@H]3O)[C@H]3COC(=O)[C@H]23)OCO4)cc(OC)c1O` [etoposide], the “number of β-gal-positive associated senescent NIH/3T3 cells” value was 44.11%.
